Where only a bound is given, the exact number is not on record here.

Sequence of IDO1 (P14902 whole entry): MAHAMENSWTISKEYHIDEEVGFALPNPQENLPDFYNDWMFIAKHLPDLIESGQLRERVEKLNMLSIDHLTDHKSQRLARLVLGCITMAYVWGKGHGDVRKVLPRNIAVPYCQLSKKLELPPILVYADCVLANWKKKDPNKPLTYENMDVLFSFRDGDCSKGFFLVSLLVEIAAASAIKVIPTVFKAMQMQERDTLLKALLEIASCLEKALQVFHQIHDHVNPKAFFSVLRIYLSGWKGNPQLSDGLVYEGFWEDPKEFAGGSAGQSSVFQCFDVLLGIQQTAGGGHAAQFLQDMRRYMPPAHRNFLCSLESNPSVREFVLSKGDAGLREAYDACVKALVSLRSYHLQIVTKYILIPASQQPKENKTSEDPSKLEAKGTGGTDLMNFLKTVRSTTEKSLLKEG

The first assay addresses IDO1 (Homo sapiens, UniProt P14902). Put plainly: IDO1 Cellular Assay in HeLa Cells Stimulated with IFNγ. In kind it is cell-based. As to conditions: HeLa Cell Potency, IC50 (nM).
For the compound `Cc1cccc(N2CCN(C(=O)Cn3nc(C(=O)N4CCC(=O)CC4)c4c3C[C@H]3C[C@@H]43)CC2)c1C` [Example 265, 1-[(3bR,4aR)-1-{2-[4-(2,3-dimethylphenyl)piperazin-1-yl]-2-oxoethyl}-3b,4,4a,5-tetrahydro-1H-cyclopropa[3,4]cyclopenta[1,2-c]pyrazole-3-carbonyl]piperidin-4-one], the IC50 is below 0.51 nM.

The assay is the same for the next values; noted with them: read-out: HeLa Cell Potency, IC50.
`Cc1cccc(N2CCN(C(=O)Cn3nc(C(=O)N4CC[C@@H](CO)C4)c4c3C[C@H]3C[C@@H]43)CC2)c1C` [Example 252, 1-[4-(2,3-dimethylphenyl)piperazin-1-yl]-2-{(3bR,4aR)-3-[(3R)-3-(hydroxymethyl)pyrrolidine-1-carbonyl]-3b,4,4a,5-tetrahydro-1H-cyclopropa[3,4]cyclopenta[1,2-c]pyrazol-1-yl}ethan-1-one]: the IC50 is 1.5 nM. On the same count and under the same terms, in the case of `Cc1cccc(N2CCN(C(=O)Cn3nc(C(=O)N4CCC(N5CCNC5=O)CC4)c4c3C[C@H]3C[C@@H]43)CC2)c1C` [Example 253, 1-{1-[(3bR,4aR)-1-{2-[4-(2,3-dimethylphenyl)piperazin-1-yl]-2-oxoethyl}-3b,4,4a,5-tetrahydro-1H-cyclopropa[3,4]cyclopenta[1,2-c]pyrazole-3-carbonyl]piperidin-4-yl}imidazolidin-2-one] it was 1.52 nM. As to `CNC(=O)C1CCN(C(=O)c2nn(CC(=O)N3CCN(c4cccc(C)c4C)CC3)c3c2[C@@H]2C[C@@H]2C3)CC1` [Example 254, 1-[(3bR,4aR)-1-{2-[4-(2,3-dimethylphenyl)piperazin-1-yl]-2-oxoethyl}-3b,4,4a,5-tetrahydro-1H-cyclopropa[3,4]cyclopenta[1,2-c]pyrazol-3-carbonyl]-N-methylpiperidine-4-carboxamide], the half-maximal inhibitory concentration (IC50) stood at 1.71 nM. Still for that read-out and setting: the figure for `Cc1cccc(N2CCN(C(=O)Cn3nc(C(=O)N4CCC(NC(N)=O)CC4)c4c3C[C@H]3C[C@@H]43)CC2)c1C` [Example 255, N-{1-[(3bR,4aR)-1-{2-[4-(2,3-dimethylphenyl)piperazin-1-yl]-2-oxoethyl}-3b,4,4a,5-tetrahydro-1H-cyclopropa[3,4]cyclopenta[1,2-c]pyrazole-3-carbonyl]piperidin-4-yl}urea] is 13.1 nM; for `CC(=O)N(C)C1CCN(C(=O)c2nn(CC(=O)N3CCN(c4cccc(C)c4C)CC3)c3c2[C@@H]2C[C@@H]2C3)CC1` [Example 256, N-{1-[(3bR,4aR)-1-{2-[4-(2,3-dimethylphenyl)piperazin-1-yl]-2-oxoethyl}-3b,4,4a,5-tetrahydro-1H-cyclopropa[3,4]cyclopenta[1,2-c]pyrazole-3-carbonyl]piperidin-4-yl}-N-methylacetamide] it is 0.83 nM. The same measure, in the same setting: in the case of `Cc1cccc(N2CCN(C(=O)Cn3nc(C(=O)N4CCC(NC(=O)C5CC5)CC4)c4c3C[C@H]3C[C@@H]43)CC2)c1C` [Example 257, N-{1-[(3bR,4aR)-1-{2-[4-(2,3-dimethylphenyl)piperazin-1-yl]-2-oxoethyl}-3b,4,4a,5-tetrahydro-1H-cyclopropa[3,4]cyclopenta[1,2-c]pyrazole-3-carbonyl]piperidin-4-yl}cyclopropanecarboxamide] it was 1.05 nM; in that of `Cc1cccc(N2CCN(C(=O)Cn3nc(C(=O)N4CCC(N5CCC5)CC4)c4c3C[C@H]3C[C@@H]43)CC2)c1C` [Example 258, 2-{(3bR,4aR)-3-[4-(azetidin-1-yl)piperidine-1-carbonyl]-3b,4,4a,5-tetrahydro-1H-cyclopropa[3,4]cyclopenta[1,2-c]pyrazol-1-yl}-1-[4-(2,3-dimethylphenyl)piperazin-1-yl]ethan-1-one], 2.95 nM; in that of `Cc1cccc(N2CCN(C(=O)Cn3nc(C(=O)N4CCC(O)(CN5CCCCC5)CC4)c4c3C[C@H]3C[C@@H]43)CC2)c1C` [Example 259, 1-[4-(2,3-dimethylphenyl)piperazin-1-yl]-2-[(3bR,4aR)-3-{4-hydroxy-4-[(piperidin-1-yl)methyl]piperidine-1-carbonyl}-3b,4,4a,5-tetrahydro-1H-cyclopropa[3,4]cyclopenta[1,2-c]pyrazol-1-yl]ethan-1-one], 9.62 nM. On the same count and under the same terms, in the case of `Cc1cccc(N2CCN(C(=O)Cn3nc(C(=O)N4CCN(CC(F)F)CC4)c4c3C[C@H]3C[C@@H]43)CC2)c1C` [Example 260, 2-{(3bR,4aR)-3-[4-(2,2-difluoroethyl)piperazine-1-carbonyl]-3b,4,4a,5-tetrahydro-1H-cyclopropa[3,4]cyclopenta[1,2-c]pyrazol-1-yl}-1-[4-(2,3-dimethyl-phenyl)piperazin-1-yl]ethan-1-one] it was 0.84 nM. For `Cc1cccc(N2CCN(C(=O)Cn3nc(C(=O)N4CC[C@@H](O)C[C@@H]4C)c4c3C[C@H]3C[C@@H]43)CC2)c1C` [Example 261, 1-[4-(2,3-dimethylphenyl)piperazin-1-yl]-2-{(3bR,4aR)-3-[(2S,4R)-4-hydroxy-2-methylpiperidine-1-carbonyl]-3b,4,4a,5-tetrahydro-1H-cyclopropa[3,4]cyclopenta[1,2-c]pyrazol-1-yl}ethan-1-one], the IC50 was 0.95 nM.

Regarding `Cc1cccc(N2CCN(C(=O)Cn3nc(C(=O)N4CC[C@H](C(C)(C)O)C4)c4c3C[C@H]3C[C@@H]43)CC2)c1C` [Example 262, 1-[4-(2,3-dimethylphenyl)piperazin-1-yl]-2-{(3bR,4aR)-3-[(3S)-3-(2-hydroxypropan-2-yl)pyrrolidine-1-carbonyl]-3b,4,4a,5-tetrahydro-1H-cyclopropa[3,4]cyclopenta[1,2-c]pyrazol-1-yl}ethan-1-one], the IC50 was determined as 0.82 nM.

For the compound `Cc1cccc(N2CCN(C(=O)Cn3nc(C(=O)N4CCC(O)(CO)CC4)c4c3C[C@H]3C[C@@H]43)CC2)c1C` [Example 263, 1-[4-(2,3-dimethylphenyl)piperazin-1-yl]-2-{(3bR,4aR)-3-[4-hydroxy-4-(hydroxymethyl)piperidine-1-carbonyl]-3b,4,4a,5-tetrahydro-1H-cyclopropa[3,4]cyclopenta[1,2-c]pyrazol-1-yl}ethan-1-one], the IC50 was 0.75 nM. On the same count and under the same terms, in the case of `Cc1cccc(N2CCN(C(=O)Cn3nc(C(=O)N4CCC(O)C(CO)C4)c4c3C[C@H]3C[C@@H]43)CC2)c1C` (stereo partly drawn) [Example 264, 1-[4-(2,3-dimethylphenyl)piperazin-1-yl]-2-{(3bR,4aR)-3-[4-hydroxy-3-(hydroxymethyl)piperidine-1-carbonyl]-3b,4,4a,5-tetrahydro-1H-cyclopropa[3,4]cyclopenta[1,2-c]pyrazol-1-yl}ethan-1-one] it was 1.28 nM. For the compound `Cc1cccc(N2CCN(C(=O)Cn3nc(C(=O)N4CC[S+]([O-])CC4)c4c3C[C@H]3C[C@@H]43)CC2)c1C` [Example 266, 4-[(3bR,4aR)-1-{2-[4-(2,3-dimethylphenyl)piperazin-1-yl]-2-oxoethyl}-3b,4,4a,5-tetrahydro-1H-cyclopropa[3,4]cyclopenta[1,2-c]pyrazole-3-carbonyl]-1lambda~4~,4-thiazinan-1-one], the IC50 came out at 5.73 nM. For `Cc1cccc(N2CCN(C(=O)Cn3nc(C(=O)N4CCOCC4CO)c4c3C[C@H]3C[C@@H]43)CC2)c1C` (stereo partly drawn) [Example 267, 1-[4-(2,3-dimethylphenyl)piperazin-1-yl]-2-{(3bR,4aR)-3-[3-(hydroxymethyl)morpholine-4-carbonyl]-3b,4,4a,5-tetrahydro-1H-cyclopropa[3,4]cyclopenta[1,2-c]pyrazol-1-yl}ethan-1-one], the concentration for half-maximal inhibition (IC50) is 7.91 nM. Take `Cc1cccc(N2CCN(C(=O)Cn3nc(C(=O)N4CCC5(CC4)COC(CO)C5)c4c3C[C@H]3C[C@@H]43)CC2)c1C` (stereo partly drawn) [Example 268, 1-[4-(2,3-dimethylphenyl)piperazin-1-yl]-2-{(3bR,4aR)-3-[3-(hydroxymethyl)-2-oxa-8-azaspiro[4.5]decane-8-carbonyl]-3b,4,4a,5-tetrahydro-1H-cyclopropa[3,4]cyclopenta[1,2-c]pyrazol-1-yl}ethan-1-one]: the IC50 stood at 1.25 nM. As for `Cc1cccc(N2CCN(C(=O)Cn3nc(C(=O)N4CCS(=N)(=O)CC4)c4c3C[C@H]3C[C@@H]43)CC2)c1C` [Example 269, 4-[(3bR,4aR)-1-{2-[4-(2,3-dimethylphenyl)piperazin-1-yl]-2-oxoethyl}-3b,4,4a,5-tetrahydro-1H-cyclopropa[3,4]cyclopenta[1,2-c]pyrazole-3-carbonyl]-1-imino-1lambda~6~,4-thiazinan-1-one], the IC50 came out at 38.6 nM. Take `Cc1cccc(N2CCN(C(=O)Cn3nc(C(=O)N4CC5CCC(C4)N5C)c4c3C[C@H]3C[C@@H]43)CC2)c1C` [Example 270, 1-[4-(2,3-dimethylphenyl)piperazin-1-yl]-2-[(3bR,4aR)-3-(8-methyl-3,8-diazabicyclo[3.2.1]octane-3-carbonyl)-3b,4,4a,5-tetrahydro-1H-cyclopropa[3,4]cyclopenta[1,2-c]pyrazol-1-yl]ethan-1-one]: the IC50 came to 5.75 nM. Same read-out and setting: the figure for `Cc1cccc(N2CCN(C(=O)Cn3nc(C(=O)N4CCCCC4C(C)(C)O)c4c3C[C@H]3C[C@@H]43)CC2)c1C` (stereo partly drawn) [Example 271, 1-[4-(2,3-dimethylphenyl)piperazin-1-yl]-2-{(3bR,4aR)-3-[2-(2-hydroxypropan-2-yl)piperidine-1-carbonyl]-3b,4,4a,5-tetrahydro-1H-cyclopropa[3,4]cyclopenta[1,2-c]pyrazol-1-yl}ethan-1-one] is 3.66 nM; for `Cc1cccc(N2CCN(C(=O)Cn3nc(C(=O)N4CCCC(NC(N)=O)C4)c4c3C[C@H]3C[C@@H]43)CC2)c1C` (stereo partly drawn) [Example 272, N-{1-[(3bR,4aR)-1-{2-[4-(2,3-dimethylphenyl)piperazin-1-yl]-2-oxoethyl}-3b,4,4a,5-tetrahydro-1H-cyclopropa[3,4]cyclopenta[1,2-c]pyrazole-3-carbonyl]piperidin-3-yl}urea] it is 16.3 nM. Same read-out and setting: the figure for `Cc1cccc(N2CCN(C(=O)Cn3nc(C(=O)N4CCC5C(C4)NC(=O)N5C)c4c3C[C@H]3C[C@@H]43)CC2)c1C` (stereo partly drawn) [Example 273, 5-[(3bR,4aR)-1-{2-[4-(2,3-dimethylphenyl)piperazin-1-yl]-2-oxoethyl}-3b,4,4a,5-tetrahydro-1H-cyclopropa[3,4]cyclopenta[1,2-c]pyrazole-3-carbonyl]-1-methyloctahydro-2H-imidazo[4,5-c]pyridin-2-one] is 38.7 nM.

As usually defined, the IC50 is the point on the concentration scale where inhibition reaches its midpoint.

The record behind these values is patent publication US12264134B2 (Merck Sharp & Dohme LLC, priority 2018, dated 2025).
